Assay results taken from ChEMBL document CHEMBL1142358, “3-amino-benzo[d]isoxazoles as novel multitargeted inhibitors of receptor tyrosine kinases” (J Med Chem, 2008).
The source made the active and inactive calls. The calls are words filed in the database; no cut-off is given here.

Legend:
[1] = target: Mast/stem cell growth factor receptor Kit (Homo sapiens, UniProt P10721); test: Inhibition of KIT by HTRF assay
[2] = target: Vascular endothelial growth factor receptor 2 (Homo sapiens, UniProt P35968)
Description: Inhibition of KDR by HTRF assay

[3] = target: T1, Receptor-type tyrosine-protein kinase FLT3 (Homo sapiens, UniProt P36888)
T1 sequence (P36888 whole entry): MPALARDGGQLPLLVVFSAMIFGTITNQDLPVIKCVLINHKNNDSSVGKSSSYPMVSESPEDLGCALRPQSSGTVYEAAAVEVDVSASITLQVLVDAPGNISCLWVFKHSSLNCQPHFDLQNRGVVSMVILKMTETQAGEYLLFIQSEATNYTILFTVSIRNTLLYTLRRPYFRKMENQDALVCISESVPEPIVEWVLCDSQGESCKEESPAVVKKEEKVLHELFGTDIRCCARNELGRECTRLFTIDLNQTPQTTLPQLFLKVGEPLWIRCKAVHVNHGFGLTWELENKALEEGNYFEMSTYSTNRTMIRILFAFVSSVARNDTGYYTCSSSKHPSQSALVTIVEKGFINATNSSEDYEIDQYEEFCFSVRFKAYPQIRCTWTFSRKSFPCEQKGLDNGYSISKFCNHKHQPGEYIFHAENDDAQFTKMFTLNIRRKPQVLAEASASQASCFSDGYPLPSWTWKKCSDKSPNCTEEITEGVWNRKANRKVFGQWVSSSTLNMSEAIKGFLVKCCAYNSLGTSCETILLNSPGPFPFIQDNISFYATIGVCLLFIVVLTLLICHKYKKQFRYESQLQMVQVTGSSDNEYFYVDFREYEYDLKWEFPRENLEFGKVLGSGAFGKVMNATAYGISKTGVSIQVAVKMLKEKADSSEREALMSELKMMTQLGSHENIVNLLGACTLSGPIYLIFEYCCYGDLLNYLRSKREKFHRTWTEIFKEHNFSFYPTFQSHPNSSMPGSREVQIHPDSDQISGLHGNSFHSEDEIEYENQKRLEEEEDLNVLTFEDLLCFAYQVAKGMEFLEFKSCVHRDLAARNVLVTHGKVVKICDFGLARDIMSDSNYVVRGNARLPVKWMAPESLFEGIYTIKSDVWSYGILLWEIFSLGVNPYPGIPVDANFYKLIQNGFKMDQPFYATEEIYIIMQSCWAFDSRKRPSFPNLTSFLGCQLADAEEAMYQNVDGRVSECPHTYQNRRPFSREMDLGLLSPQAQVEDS
Description: Inhibition of FLT3 by HTRF assay

Mus musculus [4] = test: Inhibition of estradiol-induced uterine edema in orally dosed BALB/c mouse edema model; type: functional; conditions: po
[5] = Volume of distribution in mouse at 3 mg/kg, iv; type: ADME, organism-based; set-up: dose 3 mg/kg, route intravenous; conditions: in vivo
HT-1080 = test: Inhibition of tumor growth in human HT1080 cells xenografted in SCID/Beige mouse at 30 mg/kg/day, bid relative to control; conditions: HT-1080, read-out: TGI
[6] = Half life in mouse at 3 mg/kg, iv; type: ADME, organism-based; set-up: dose 3 mg/kg, route intravenous; conditions: in vivo
[7] = Clearance in mouse at 3 mg/kg, iv; type: ADME, organism-based; set-up: dose 3 mg/kg, route intravenous; conditions: in vivo
[8] = AUC in mouse at 10 mg/kg, po; type: ADME, organism-based; set-up: dose 10 mg/kg, route oral; conditions: plasma
[9] = Oral bioavailability in mouse at 10 mg/kg; type: ADME, organism-based; conditions: in vivo
[10] = target: Receptor-type tyrosine-protein kinase FLT3 (Homo sapiens) (UniProt P36888)
Description: Inhibition of FLT3 by HTRF assay

[11] = target: Macrophage colony-stimulating factor 1 receptor (Homo sapiens, UniProt P07333); test: Inhibition of CSF1R by HTRF assay
[12] = target: Tyrosine-protein kinase HCK (Homo sapiens, UniProt P08631); test: Inhibition of HCK by HTRF assay
Angiopoietin-1 receptor = Angiopoietin-1 receptor (Homo sapiens, UniProt Q02763); test: Inhibition of TIE2 by HTRF assay
[13] = Volume of distribution in mouse at 1 mg/kg, iv; type: ADME, organism-based; set-up: dose 1 mg/kg, route intravenous; conditions: in vivo
[14] = target: Vascular endothelial growth factor receptor 1 (Homo sapiens, UniProt P17948); test: Inhibition of FLT1 by HTRF assay
[15] = Clearance in mouse at 1 mg/kg, iv; type: ADME, organism-based; set-up: dose 1 mg/kg, route intravenous; conditions: in vivo
[16] = target: Tyrosine-protein kinase Lyn (Homo sapiens, UniProt P07948); test: Inhibition of LYN by HTRF assay
[17] = target: Platelet-derived growth factor receptor beta (Homo sapiens, UniProt P09619); test: Inhibition of PDGFRbeta by HTRF assay
Mus musculus [18] = test: Inhibition of estradiol-induced uterine edema in orally dosed BALB/c mouse edema model at 3 mg/kg, po; type: functional
[19] = Half life in mouse at 1 mg/kg, iv; type: ADME, organism-based; set-up: dose 1 mg/kg, route intravenous; conditions: in vivo
[20] = target: Proto-oncogene tyrosine-protein kinase Src (Homo sapiens, UniProt P12931); test: Inhibition of SRC by HTRF assay

Mast/stem cell growth factor receptor Kit, sequence (P10721 whole entry): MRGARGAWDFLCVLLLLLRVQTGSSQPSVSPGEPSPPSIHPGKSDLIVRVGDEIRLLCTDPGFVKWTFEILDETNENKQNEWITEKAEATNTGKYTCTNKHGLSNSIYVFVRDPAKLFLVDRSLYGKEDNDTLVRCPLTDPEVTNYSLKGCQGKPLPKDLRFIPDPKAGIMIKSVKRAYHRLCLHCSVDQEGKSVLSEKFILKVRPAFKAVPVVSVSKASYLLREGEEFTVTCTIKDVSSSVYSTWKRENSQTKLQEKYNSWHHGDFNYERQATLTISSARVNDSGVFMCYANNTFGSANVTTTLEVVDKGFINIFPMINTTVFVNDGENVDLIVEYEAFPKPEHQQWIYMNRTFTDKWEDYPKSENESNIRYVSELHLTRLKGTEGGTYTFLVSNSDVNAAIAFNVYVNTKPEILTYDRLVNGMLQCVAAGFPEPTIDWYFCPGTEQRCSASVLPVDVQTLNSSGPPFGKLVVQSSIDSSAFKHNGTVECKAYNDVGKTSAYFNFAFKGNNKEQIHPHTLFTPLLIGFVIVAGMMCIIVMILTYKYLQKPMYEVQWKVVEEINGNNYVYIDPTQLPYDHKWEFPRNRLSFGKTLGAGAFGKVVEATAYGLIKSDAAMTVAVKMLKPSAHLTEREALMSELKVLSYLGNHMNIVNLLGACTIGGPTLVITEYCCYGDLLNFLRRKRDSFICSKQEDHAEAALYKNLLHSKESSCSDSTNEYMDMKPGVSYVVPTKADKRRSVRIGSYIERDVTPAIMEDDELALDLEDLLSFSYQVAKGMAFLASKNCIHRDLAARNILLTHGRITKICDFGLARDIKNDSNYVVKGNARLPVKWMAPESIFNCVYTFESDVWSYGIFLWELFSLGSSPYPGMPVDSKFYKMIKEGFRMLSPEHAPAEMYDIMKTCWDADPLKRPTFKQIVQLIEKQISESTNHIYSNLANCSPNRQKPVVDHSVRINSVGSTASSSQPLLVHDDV
Vascular endothelial growth factor receptor 2, sequence (P35968 whole entry): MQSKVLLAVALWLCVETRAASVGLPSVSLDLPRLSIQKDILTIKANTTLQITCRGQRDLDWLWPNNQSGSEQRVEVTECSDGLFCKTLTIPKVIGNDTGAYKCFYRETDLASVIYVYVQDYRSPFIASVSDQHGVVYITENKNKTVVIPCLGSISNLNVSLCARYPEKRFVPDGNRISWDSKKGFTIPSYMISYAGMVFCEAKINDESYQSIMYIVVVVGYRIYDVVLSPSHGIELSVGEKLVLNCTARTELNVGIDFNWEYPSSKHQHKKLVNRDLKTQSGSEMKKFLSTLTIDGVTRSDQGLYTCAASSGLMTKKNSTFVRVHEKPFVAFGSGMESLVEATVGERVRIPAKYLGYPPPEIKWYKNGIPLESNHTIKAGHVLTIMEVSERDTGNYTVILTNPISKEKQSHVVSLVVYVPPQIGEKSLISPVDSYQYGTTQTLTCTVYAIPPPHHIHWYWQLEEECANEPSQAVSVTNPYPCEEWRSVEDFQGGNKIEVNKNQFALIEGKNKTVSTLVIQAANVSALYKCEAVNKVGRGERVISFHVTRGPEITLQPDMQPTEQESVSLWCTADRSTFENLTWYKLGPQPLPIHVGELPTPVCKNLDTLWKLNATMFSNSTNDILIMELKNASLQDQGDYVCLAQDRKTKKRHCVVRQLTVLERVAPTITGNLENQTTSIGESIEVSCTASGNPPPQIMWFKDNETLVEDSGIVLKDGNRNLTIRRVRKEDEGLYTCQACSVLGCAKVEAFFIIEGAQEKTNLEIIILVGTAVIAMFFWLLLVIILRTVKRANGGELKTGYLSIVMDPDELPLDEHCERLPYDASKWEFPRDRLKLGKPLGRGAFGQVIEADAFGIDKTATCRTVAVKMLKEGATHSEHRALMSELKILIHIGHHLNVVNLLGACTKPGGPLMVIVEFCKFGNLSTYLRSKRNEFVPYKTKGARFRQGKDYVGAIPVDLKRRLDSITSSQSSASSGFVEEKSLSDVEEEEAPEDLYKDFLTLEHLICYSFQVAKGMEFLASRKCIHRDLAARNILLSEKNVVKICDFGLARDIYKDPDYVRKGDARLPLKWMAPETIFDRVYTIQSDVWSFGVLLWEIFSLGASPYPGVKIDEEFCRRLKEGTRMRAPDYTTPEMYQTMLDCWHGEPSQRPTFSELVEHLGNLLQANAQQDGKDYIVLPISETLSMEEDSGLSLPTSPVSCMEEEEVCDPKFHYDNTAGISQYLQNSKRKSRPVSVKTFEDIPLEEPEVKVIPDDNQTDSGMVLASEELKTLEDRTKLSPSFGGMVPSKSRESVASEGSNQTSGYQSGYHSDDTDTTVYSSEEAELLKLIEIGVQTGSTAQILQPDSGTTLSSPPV
Tyrosine-protein kinase HCK, sequence (P08631 whole entry): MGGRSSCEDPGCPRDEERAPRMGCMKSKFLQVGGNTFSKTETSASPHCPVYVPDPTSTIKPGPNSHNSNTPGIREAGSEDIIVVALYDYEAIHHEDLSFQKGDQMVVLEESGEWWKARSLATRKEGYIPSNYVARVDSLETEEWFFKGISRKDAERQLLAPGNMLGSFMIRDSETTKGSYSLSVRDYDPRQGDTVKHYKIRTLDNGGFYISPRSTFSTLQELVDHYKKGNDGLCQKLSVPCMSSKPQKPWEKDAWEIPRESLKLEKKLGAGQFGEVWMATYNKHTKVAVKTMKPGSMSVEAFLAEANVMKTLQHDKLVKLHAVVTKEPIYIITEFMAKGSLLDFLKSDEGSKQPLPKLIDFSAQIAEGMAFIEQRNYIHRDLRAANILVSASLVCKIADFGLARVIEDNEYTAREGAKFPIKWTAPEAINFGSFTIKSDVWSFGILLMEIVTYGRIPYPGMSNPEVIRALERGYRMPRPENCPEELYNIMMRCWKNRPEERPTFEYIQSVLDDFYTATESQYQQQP
Angiopoietin-1 receptor, sequence (Q02763 whole entry): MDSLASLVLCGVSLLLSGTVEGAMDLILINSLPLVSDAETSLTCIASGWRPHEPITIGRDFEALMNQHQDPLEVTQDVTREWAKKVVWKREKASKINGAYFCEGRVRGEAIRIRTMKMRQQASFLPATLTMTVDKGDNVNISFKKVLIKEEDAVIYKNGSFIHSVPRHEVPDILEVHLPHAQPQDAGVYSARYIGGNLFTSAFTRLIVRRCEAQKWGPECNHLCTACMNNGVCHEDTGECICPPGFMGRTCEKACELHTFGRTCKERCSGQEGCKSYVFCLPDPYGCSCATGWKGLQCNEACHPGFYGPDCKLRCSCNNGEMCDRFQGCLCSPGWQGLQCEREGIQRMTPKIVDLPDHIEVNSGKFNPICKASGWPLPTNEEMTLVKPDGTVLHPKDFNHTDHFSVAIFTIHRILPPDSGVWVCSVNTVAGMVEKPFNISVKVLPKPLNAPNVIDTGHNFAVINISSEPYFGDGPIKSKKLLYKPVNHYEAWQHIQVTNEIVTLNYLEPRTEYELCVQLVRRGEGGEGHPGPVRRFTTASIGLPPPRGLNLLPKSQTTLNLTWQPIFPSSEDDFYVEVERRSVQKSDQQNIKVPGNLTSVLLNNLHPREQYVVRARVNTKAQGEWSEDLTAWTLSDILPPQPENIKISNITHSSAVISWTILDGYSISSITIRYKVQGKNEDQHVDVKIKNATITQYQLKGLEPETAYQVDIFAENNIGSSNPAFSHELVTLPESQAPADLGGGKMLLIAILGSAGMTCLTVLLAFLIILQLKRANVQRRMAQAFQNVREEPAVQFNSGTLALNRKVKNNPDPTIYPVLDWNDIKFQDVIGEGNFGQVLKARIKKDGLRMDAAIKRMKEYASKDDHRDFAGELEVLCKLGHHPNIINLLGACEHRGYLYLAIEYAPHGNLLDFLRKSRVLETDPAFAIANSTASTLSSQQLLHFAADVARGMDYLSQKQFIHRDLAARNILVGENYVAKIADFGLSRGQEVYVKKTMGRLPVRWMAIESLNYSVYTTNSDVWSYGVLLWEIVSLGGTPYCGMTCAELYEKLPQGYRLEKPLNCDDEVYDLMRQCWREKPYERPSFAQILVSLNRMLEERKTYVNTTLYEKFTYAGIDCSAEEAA
Macrophage colony-stimulating factor 1 receptor, sequence (P07333 whole entry): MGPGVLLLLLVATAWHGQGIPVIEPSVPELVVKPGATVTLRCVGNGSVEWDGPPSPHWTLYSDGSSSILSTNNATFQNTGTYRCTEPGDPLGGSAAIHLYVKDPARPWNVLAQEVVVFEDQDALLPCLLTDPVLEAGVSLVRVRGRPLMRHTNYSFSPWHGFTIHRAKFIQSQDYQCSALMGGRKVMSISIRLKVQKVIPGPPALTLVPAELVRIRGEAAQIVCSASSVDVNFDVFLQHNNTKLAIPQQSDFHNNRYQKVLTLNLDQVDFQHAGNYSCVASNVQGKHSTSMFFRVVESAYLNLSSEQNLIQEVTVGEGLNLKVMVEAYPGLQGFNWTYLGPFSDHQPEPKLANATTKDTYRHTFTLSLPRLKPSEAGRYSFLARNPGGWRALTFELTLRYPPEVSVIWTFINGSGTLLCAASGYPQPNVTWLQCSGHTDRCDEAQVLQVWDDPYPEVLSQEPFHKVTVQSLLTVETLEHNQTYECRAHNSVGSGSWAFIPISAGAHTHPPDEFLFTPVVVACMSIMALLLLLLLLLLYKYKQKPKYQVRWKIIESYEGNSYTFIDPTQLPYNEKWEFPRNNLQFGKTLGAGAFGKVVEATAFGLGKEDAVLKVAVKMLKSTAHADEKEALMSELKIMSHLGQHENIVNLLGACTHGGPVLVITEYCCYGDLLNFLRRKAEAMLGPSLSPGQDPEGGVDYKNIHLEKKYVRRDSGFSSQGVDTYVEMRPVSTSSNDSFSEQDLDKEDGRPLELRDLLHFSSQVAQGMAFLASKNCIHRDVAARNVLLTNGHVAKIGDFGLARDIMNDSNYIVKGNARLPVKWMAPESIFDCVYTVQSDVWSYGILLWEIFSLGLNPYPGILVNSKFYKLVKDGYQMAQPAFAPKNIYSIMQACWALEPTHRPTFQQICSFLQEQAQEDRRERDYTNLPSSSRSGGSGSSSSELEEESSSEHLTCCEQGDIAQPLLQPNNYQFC

| IC50 [1] [µM] | IC50 [3] [µM] | SMILES | also measured |
| --- | --- | --- | --- |
| 0.114 | 0.082 | Cc1ccc(F)c(NC(=O)Nc2ccc(-c3ccc(CN4CCOCC4)c4onc(N)c34)cc2)c1 | IC50 [2]: 0.365 µM |
| > 12.5 | > 12.5 | Nc1noc2cccc(-c3ccc(NC(=O)c4ccccc4)cc3)c12 | IC50 [2]: > 12.5 µM |
| 0.062 | 0.028 | Nc1noc2cccc(-c3ccc(NC(=O)Nc4ccc(F)c(C(F)(F)F)c4)cc3)c12 | ED50 (Mus musculus [4]): 5.4 mg/kg; Vd [5]: 1.4 L/kg; inhibition in vivo at 30 mg/kg/day (HT-1080): 63%; half-life [6]: 1.2 h; clearance [7]: 13.2 mL/min/kg; AUC [8]: 33.1 µM·h; bioavailability [9]: 100% |
| 2.63 | 1.26 | Nc1nsc2cccc(-c3ccc(NC(=O)Nc4cccc(C(F)(F)F)c4)cc3)c12 | IC50 [2]: 0.247 µM |
| 0.01 | 0.006 | Nc1noc2cccc(-c3ccc(NC(=O)Nc4cccc(Cl)c4)cc3)c12 |  |
| 0.071 | 0.034 | Cc1ccc(F)c(NC(=O)Nc2ccc(-c3ccc(OCCN4CCOCC4)c4onc(N)c34)cc2)c1 |  |
| 0.166 | 0.06 | Nc1noc2cccc(-c3ccc(NC(=O)Nc4ccccc4OC(F)(F)F)cc3)c12 |  |
| 0.007 |  | Nc1noc2cccc(-c3ccc(NC(=O)Nc4cccc(Br)c4)cc3)c12 | Activity [10]: inactive |
| 0.339 |  | Nc1noc2cccc(-c3ccc(NC(=O)Nc4cc(C(F)(F)F)ccc4F)cc3)c12 |  |
| 0.012 |  | Cc1ccc(NC(=O)Nc2ccc(-c3cccc4onc(N)c34)cc2)cc1F | Activity [10]: inactive |
| 0.023 |  | Cc1ccc(F)c(NC(=O)Nc2ccc(-c3cccc4onc(N)c34)cc2)c1 |  |
| 0.072 | 0.03 | COc1ccc(-c2ccc(NC(=O)Nc3cccc(Cl)c3)cc2)c2c(N)noc12 | IC50 [11]: 0.04 µM; IC50 [12]: > 50 µM; inhibition in vivo at 30 mg/kg/day (HT-1080): 45%; IC50 (Angiopoietin-1 receptor): 1 µM; Vd [13]: 1.2 L/kg; IC50 [14]: 0.038 µM; clearance [15]: 15.5 mL/min/kg; IC50 [16]: > 50 µM; Activity [17]: inactive; AUC [8]: 25.8 µM·h; inhibition in vivo at 3 mg/kg (Mus musculus [18]): 90%; bioavailability [9]: 99%; half-life [19]: 0.9 h; IC50 [20]: > 50 µM |
| 0.014 |  | Nc1noc2cccc(-c3ccc(NC(=O)Nc4cc(F)cc(F)c4)cc3)c12 | Activity [10]: inactive |
| 0.012 | 0.014 | Cc1cccc(NC(=O)Nc2ccc(-c3cccc4onc(N)c34)cc2)c1 |  |
| > 12.5 | 1.4 | Nc1noc2cccc(-c3ccc(NC(=O)/C=C/c4cccc(C(F)(F)F)c4)cc3)c12 | IC50 [2]: > 12.5 µM |
| 0.102 | 0.027 | Nc1noc2cccc(-c3ccc(NC(=O)Nc4ccc(OC(F)(F)F)cc4)cc3)c12 |  |
| 0.007 | 0.004 | Nc1noc2cccc(-c3ccc(NC(=O)Nc4ccc(F)cc4)cc3)c12 |  |
| 0.036 | 0.022 | Nc1noc2cccc(-c3ccc(NC(=O)Nc4ccc(F)c(Cl)c4)cc3)c12 |  |
| 0.011 |  | Nc1noc2cccc(-c3ccc(NC(=O)Nc4cccc(F)c4)cc3)c12 | Activity [10]: inactive |
| 0.004 |  | COc1cccc(NC(=O)Nc2ccc(-c3cccc4onc(N)c34)cc2)c1 | Activity [10]: inactive |
